Laboratory results as given in the METLIN SMRT retention time set (Domingo-Almenara et al. 2019).

Test: gradient 5% acetonitrile 3 min, to 50% in 2 min, to 85% in 15 min, held 3 min, 100 µL/min
Conditions: column: Zorbax Extend-C18 2.1 x 50 mm; eluents: water / acetonitrile, 0.1% formic acid
How it was run: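 A Zorbax Extend-C18 column (2.1 × 50 mm, 1.8 μm) run at 100 μL/min with water and acetonitrile, both containing 0.1% formic acid, separated mixtures of ~100 pure standards. The HPLC was coupled to a quadrupole time-of-flight mass spectrometer operated in positive and negative ionization mode, with dead and dwell volumes of 40 μL and 900 μL. Each retention time was taken from a computationally picked adduct peak that was then manually inspected.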

Structure (SMILES)	RP-LC retention time [s]
Cc1ccnc(N2CCCC(C(=O)NCCc3ccc(S(N)(=O)=O)cc3)C2)n1 (stereo unspecified)	604
CCc1ccccc1NC(=O)CSc1nnc2c3cc(-c4ccc(C)cc4)nn3ccn12	989
CC(=O)N1CCN(c2nc3c(s2)CC(C(=O)NCc2ccc(F)cc2F)CC3)CC1 (stereo unspecified)	544
CCCC(NC(=O)c1cccc(OC)c1)C(=O)Nc1nc2ccccc2[nH]1 (stereo unspecified)	696
Cc1ccc(N2CCN(C(=O)CN3CCN(Cc4cccc(Cl)c4)C3=O)CC2)cc1	905
CC1=C(c2ccc(C(C)C)cc2)S(=O)(=O)N=C1N1CCC(C(=O)NCCN2CCCC2)CC1	693
COc1ccc(NC(=O)N(C)CCc2noc(COc3ccccc3F)n2)c(OC)c1	877
CC(NC(=O)c1ccc2c(c1)nc1n2CCN(Cc2ccccc2)C1=O)c1cccnc1 (stereo unspecified)	616
Cc1cnc(C(=O)N(C)C2CCc3nn(CC4CC4)c(=O)n3CC2)cn1 (stereo unspecified)	618
Cc1cc(C(=O)N2CCC(c3cc(N)on3)CC2)c(C)o1	667
Cc1cccc(-c2nc(Cc3noc(COc4ccccc4)n3)c(C)o2)c1	1170
CCc1nn2c(CNS(=O)(=O)c3ccc(Cl)cc3C)c(-c3ccccc3)nc2s1	1050
O=C(Cc1cccc2ccccc12)Nc1c(-c2ccccc2)nc2ccccn12	708
O=C(Nc1nc(-c2ccncc2)cs1)C1CCCCC1	588
CC1=C(c2ccc(C)cc2)S(=O)(=O)N=C1N1CCCN(C(=O)c2ccc(C#N)cc2)CC1	835
COCC(=O)N(CC(=O)N1CCc2sccc2C1COc1ccc(C)cc1C)CC1CC1 (stereo unspecified)	982
COc1cccc(OCC(O)CN2CCN(c3ccc(Cl)cc3)CC2)c1 (stereo unspecified)	724
C(=C\c1ccccc1)/CN1CCN(CCOC(c2ccccc2)c2ccccc2)CC1	884
Cc1ccc2nc3c(c(C(=O)NC4CC4)c2c1)CCCC3	584

The next lines start with the values.

RP-LC retention time [s]	Structure (SMILES)
1100	CCCN1C(=O)COc2ccc(-c3noc(-c4cccc(NC(=O)c5ccco5)c4)n3)cc21
571	Cc1ccc(-c2cn3cc(C(=O)NC(C)c4cccnc4)ccc3n2)cc1 (stereo unspecified)
558	Cc1nn(C)c(C)c1CCCN(C)C(=O)c1cccc(N2CCNC(c3ccccc3)C2)n1 (stereo unspecified)
974	Cc1ccc(CNC(=O)C2CCCN(S(=O)(=O)c3cc(-c4noc(C)n4)cs3)C2)cc1 (stereo unspecified)
787	O=C(COc1ccc(F)cc1)N1CCOc2ccc(N3CCOCC3)cc2C1
902	COc1cccc(CNC(=O)Cn2c(=O)cc(-c3nc(C4CC4)no3)c3ccccc32)c1
804	O=C(Cn1c(=O)n(-c2ccc(F)cc2)c2ncccc21)NCCCN1CCOCC1
935	Cc1ccc(-n2nc(N3CCCN(S(=O)(=O)c4ccc(Cl)cc4)CC3)ccc2=O)cc1
1060	Cc1nn(-c2cccc(Cl)c2)c2nc(N3CCCC(C(=O)NC4CC4)C3)sc12 (stereo unspecified)
738	CC1(C)COc2ccc(NC(=O)CN3C(=O)c4ccccc4C3=O)cc2NC1=O
904	COc1ccc(-c2nc(CCS(=O)(=O)c3ccc(C)cc3)no2)cc1OC
983	CCOc1cccc(C2c3[nH]c4ccccc4c3CCN2C(=O)COC)c1 (stereo unspecified)
564	Fc1ccc(CN2CCC(Cc3nc(-c4cccnc4)n[nH]3)C2)c(F)c1 (stereo unspecified)
714	CCOCCCNC(=O)CN1C(=O)CCn2nc(-c3cn(C)c4ccccc34)cc21
876	O=C(NCCc1csc(-c2ccc(F)cc2)n1)c1ccc2nsnc2c1
774	COC(=O)c1cc2c(=O)n(CCc3c[nH]c4ccc(OC)cc34)ccc2nc1C
714	COc1cccc(-c2cc3n(n2)CCCN(C(=O)c2ccsc2)C3)c1
